How the values were obtained:
Type in all cases: biochemical
JAK2 = JAK2 (Homo sapiens (Human), UniProt O60674); experiment: JAK Caliper Enzyme Assay at 1 mM ATP, JAK2
How it was run: (§1)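 First, compound was incubated at room temperature with recombinant human kinase domain, a synthetic peptide and 1 mM ATP until 20–30% of peptide was phosphorylated. Next, EDTA stopped the reaction. Finally, electrophoretic separation quantified product, and percent effect relative to controls was plotted against concentration.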

JAK3 = JAK3 (Homo sapiens (Human), UniProt P52333); experiment: JAK Caliper Enzyme Assay at 1 mM ATP, JAK3
Chain of JAK3 (P52333 822-1111): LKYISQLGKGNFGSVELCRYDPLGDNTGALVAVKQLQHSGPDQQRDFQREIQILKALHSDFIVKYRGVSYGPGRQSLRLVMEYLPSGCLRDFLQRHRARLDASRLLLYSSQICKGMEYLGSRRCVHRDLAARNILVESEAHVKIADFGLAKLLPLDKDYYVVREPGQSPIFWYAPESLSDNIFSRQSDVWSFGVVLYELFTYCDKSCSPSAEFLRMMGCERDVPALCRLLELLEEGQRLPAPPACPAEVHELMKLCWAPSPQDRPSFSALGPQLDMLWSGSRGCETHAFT
How it was run: (§2)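 IC50 (nM) derived from percent conversion of fluorescently labelled peptide, measured by Caliper LabChip mobility-shift separation after EDTA stop. Each JAK family kinase domain (human, recombinant) run at 1 mM ATP and room temperature, conditions set to 20-30% product; DMSO wells define uninhibited baseline.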

JAK1 = JAK1 (Homo sapiens (Human), UniProt P23458); experiment: JAK Caliper Enzyme Assay at 1 mM ATP, JAK1
Chain of JAK1 (P23458 875-1153): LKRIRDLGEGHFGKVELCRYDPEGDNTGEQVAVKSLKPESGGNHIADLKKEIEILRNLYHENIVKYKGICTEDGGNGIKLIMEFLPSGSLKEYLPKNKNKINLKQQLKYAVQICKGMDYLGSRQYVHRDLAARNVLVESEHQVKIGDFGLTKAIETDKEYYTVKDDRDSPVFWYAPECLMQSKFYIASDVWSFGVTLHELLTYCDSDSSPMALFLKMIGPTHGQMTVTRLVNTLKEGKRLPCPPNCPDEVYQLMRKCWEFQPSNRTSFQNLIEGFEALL
How it was run: as §2

TYK2 = TYK2 (Homo sapiens (Human), UniProt P29597); experiment: JAK Caliper Enzyme Assay at 1 mM ATP, TYK2
Chain of TYK2 (P29597 897-1176): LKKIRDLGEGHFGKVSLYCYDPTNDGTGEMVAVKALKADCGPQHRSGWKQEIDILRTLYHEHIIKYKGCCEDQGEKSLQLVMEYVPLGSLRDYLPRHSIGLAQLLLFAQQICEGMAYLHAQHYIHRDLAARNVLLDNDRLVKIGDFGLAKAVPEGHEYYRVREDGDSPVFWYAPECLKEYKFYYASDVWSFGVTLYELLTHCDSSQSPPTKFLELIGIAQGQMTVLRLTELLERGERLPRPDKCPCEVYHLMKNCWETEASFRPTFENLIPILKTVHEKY
How it was run: as §1

Chain of JAK2 (O60674 849-1124): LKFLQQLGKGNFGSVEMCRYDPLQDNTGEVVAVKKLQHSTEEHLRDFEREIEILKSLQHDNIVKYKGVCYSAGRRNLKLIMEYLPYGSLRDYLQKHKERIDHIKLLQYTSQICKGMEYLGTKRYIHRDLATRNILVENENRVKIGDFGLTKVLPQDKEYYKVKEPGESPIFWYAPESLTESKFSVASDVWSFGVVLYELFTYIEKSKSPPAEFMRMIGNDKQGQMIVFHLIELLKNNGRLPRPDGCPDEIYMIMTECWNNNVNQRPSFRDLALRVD

IC50 (JAK2) | IC50 (JAK3) | IC50 (JAK1) | IC50 (TYK2) | SMILES
510 nM | > 10000 nM | 7430 nM | 34 nM | Cc1cc(-c2cc3ncccc3c(-c3ccn([C@]4(CC#N)C[C@@H](C#N)C4)n3)n2)nn1C [Example 58, trans-3-(cyanomethyl)-3-{3-[7-(1,5-dimethyl-1H-pyrazol-3-yl)-1,6-naphthyridin-5-yl]-1H-pyrazol-1-yl}cyclobutanecarbonitrile]
92 nM | > 10000 nM | 880 nM | 16 nM | Cc1cc(-c2cc3ncccc3c(-c3ccn([C@]4(CC#N)C[C@H](C#N)C4)n3)n2)nn1C [Example 59, cis-3-(cyanomethyl)-3-{3-[7-(1,5-dimethyl-1H-pyrazol-3-yl)-1,6-naphthyridin-5-yl]-1H-pyrazol-1-yl}cyclobutanecarbonitrile]
915 nM | > 10000 nM | 3850 nM | 190 nM | Cn1nc(CO)cc1-c1cc2ncccc2c(-c2ccn([C@]3(CC#N)C[C@@H](C#N)C3)n2)n1 [Example 60, trans-3-(cyanomethyl)-3-(3-{7-[3-(hydroxymethyl)-1-methyl-1H-pyrazol-5-yl]-1,6-naphthyridin-5-yl}-1H-pyrazol-1-yl)cyclobutanecarbonitrile]
123 nM | > 10000 nM | 521 nM | 39 nM | Cn1nc(CO)cc1-c1cc2ncccc2c(-c2ccn([C@]3(CC#N)C[C@H](C#N)C3)n2)n1 [Example 61, cis-3-(cyanomethyl)-3-(3-{7-[3-(hydroxymethyl)-1-methyl-1H-pyrazol-5-yl]-1,6-naphthyridin-5-yl}-1H-pyrazol-1-yl)cyclobutanecarbonitrile]
556 nM | > 10000 nM | 3400 nM | 158 nM | CNc1cc(-c2cc3ncccc3c(-c3ccn([C@]4(CC#N)C[C@H](C#N)C4)n3)n2)nn1C [Example 69, cis-3-(cyanomethyl)-3-(3-{7-[1-methyl-5-(methylamino)-1H-pyrazol-3-yl]-,6-naphthyridin-5-yl}-1H-pyrazol-1-yl)cyclobutanecarbonitrile]
3500 nM | > 10000 nM | > 10000 nM | 661 nM | CNc1cc(-c2cc3ncccc3c(-c3ccn([C@]4(CC#N)C[C@@H](C#N)C4)n3)n2)nn1C [Example 70, trans-3-(cyanomethyl)-3-(3-{7-[1-methyl-5-(methylamino)-1H-pyrazol-3-yl]-1,6-naphthyridin-5-yl}-1H-pyrazol-1-yl)cyclobutanecarbonitrile]
205 nM | 7930 nM | 3720 nM | 109 nM | Cn1nc(-c2cc3ncccc3c(-c3ccn([C@]4(CC#N)C[C@@H](C#N)C4)n3)n2)cc1CN [Example 71, trans-3-(3-{7-[5-(aminomethyl)-1-methyl-1H-pyrazol-3-yl]-1,6-naphthyridin-5-yl}-1H-pyrazol-1-yl)-3-(cyanomethyl)cyclobutanecarbonitrile]
48 nM | 5100 nM | 676 nM | 28 nM | N#CCC1(n2ccc(-c3nc(-c4cc5n(n4)CCNC5)cc4ncccc34)n2)CC(C#N)C1 (stereo not drawn) [Example 72, cis-3-(cyanomethyl)-3-{3-[7-(4,5,6,7-tetrahydropyrazolo[1,5-a]pyrazin-2-yl)-1,6-naphthyridin-5-yl]-1H-pyrazol-1-yl}cyclobutanecarbonitrile]
206 nM | > 10000 nM | 4630 nM | 33 nM | N#CC[C@]1(n2ccc(-c3nc(-c4cc5n(n4)CCNC5)cc4ncccc34)n2)C[C@H](C#N)C1 [Example 73, trans-3-(cyanomethyl)-3-{3-[7-(4,5,6,7-tetrahydropyrazolo[1,5-a]pyrazin-2-yl)-1,6-naphthyridin-5-yl]-1H-pyrazol-1-yl}cyclobutanecarbonitrile]
242 nM | > 10000 nM | 293 nM | 25 nM | N#CC[C@]1(n2ccc(-c3nc(-c4cn[nH]c4)cc4ncccc34)n2)C[C@H](C#N)C1 [Example 77, trans-3-(cyanomethyl)-3-{3-[7-(1H-pyrazol-4-yl)-1,6-naphthyridin-5-yl]-1H-pyrazol-1-yl}cyclobutanecarbonitrile]

Further lines, the compound ahead of its results:

SMILES | IC50 (JAK2) | IC50 (JAK3) | IC50 (JAK1) | IC50 (TYK2)
Cn1nccc1-c1cc2ncccc2c(-c2ccn(C3(CC#N)CN(CC(F)(F)F)C3)n2)n1 [Example 54, [3-{3-[7-(1-methyl-1H-pyrazol-5-yl)-1,6-naphthyridin-5-yl]-1H-pyrazol-1-yl}-1-(2,2,2-trifluoroethyl)azetidin-3-yl]acetonitrile] | 2100 nM | > 10000 nM | 2300 nM | 214 nM
Cn1ccc(-c2cc3ncccc3c(-c3ccn(C4(CC#N)CN(CC(F)(F)F)C4)n3)n2)n1 [Example 55, [3-{3-[7-(1-methyl-1H-pyrazol-3-yl)-1,6-naphthyridin-5-yl]-1H-pyrazol-1-yl}-1-(2,2,2-trifluoroethyl)azetidin-3-yl]acetonitrile] | 2560 nM | > 10000 nM | 8870 nM | 156 nM
CS(=O)(=O)N1CC(CC#N)(n2ccc(-c3nc(-c4ccn(C5COC5)n4)cc4ncccc34)n2)C1 [Example 56, [1-(methylsulfonyl)-3-(3-{7-[1-(oxetan-3-yl)-1H-pyrazol-3-yl]-1,6-naphthyridin-5-yl}-1H-pyrazol-1-yl)azetidin-3-yl]acetonitrile] | 1480 nM | > 10000 nM | > 10000 nM | 225 nM
N#CCC1(n2ccc(-c3nc(-c4ccn(C5COC5)n4)cc4ncccc34)n2)CN(CC(F)(F)F)C1 [Example 57, [3-(3-{7-[1-(oxetan-3-yl)-1H-pyrazol-3-yl]-1,6-naphthyridin-5-yl}-1H-pyrazol-1-yl)-1-(2,2,2-trifluoroethyl)azetidin-3-yl]acetonitrile] | 2350 nM | > 10000 nM | > 10000 nM | 257 nM
CCN1CC(CC#N)(n2ccc(-c3nc(-c4cc(N)n(C)n4)cc4ncccc34)n2)C1 [Example 64, (3-{3-[7-(5-amino-1-methyl-1H-pyrazol-3-yl)-1,6-naphthyridin-5-yl]-1H-pyrazol-1-yl}-1-ethylazetidin-3-yl)acetonitrile] | 5900 nM | > 10000 nM | > 10000 nM | 440 nM
Cn1nc(-c2cc3ncccc3c(-c3ccn([C@]4(CC#N)C[C@](C)(C#N)C4)n3)n2)cc1N [Example 67, cis-3-{3-[7-(5-amino-1-methyl-1H-pyrazol-3-yl)-1,6-naphthyridin-5-yl]-1H-pyrazol-1-yl}-3-(cyanomethyl)-1-methylcyclobutanecarbonitrile] | 246 nM | > 10000 nM | 2180 nM | 39 nM
Cn1nc(-c2cc3ncccc3c(-c3ccn([C@]4(CC#N)C[C@@](C)(C#N)C4)n3)n2)cc1N [Example 68, trans-3-{3-[7-(5-amino-1-methyl-1H-pyrazol-3-yl)-1,6-naphthyridin-5-yl]-1H-pyrazol-1-yl}-3-(cyanomethyl)-1-methylcyclobutanecarbonitrile] | 4330 nM | > 10000 nM | > 10000 nM | 1590 nM
N#CCC1(n2ccc(-c3nc(-c4cn[nH]c4)cc4ncccc34)n2)CN(CC(F)(F)F)C1 [Example 74, [3-{3-[7-(1H-pyrazol-4-yl)-1,6-naphthyridin-5-yl]-1H-pyrazol-1-yl}-1-(2,2,2-trifluoroethyl)azetidin-3-yl]acetonitrile] | 267 nM | 9660 nM | 217 nM | 13 nM
CS(=O)(=O)N1CC(CC#N)(n2ccc(-c3nc(-c4cn[nH]c4)cc4ncccc34)n2)C1 [Example 75, [1-(methylsulfonyl)-3-{3-[7-(1H-pyrazol-4-yl)-1,6-naphthyridin-5-yl]-1H-pyrazol-1-yl}azetidin-3-yl]acetonitrile] | 444 nM | > 10000 nM | 679 nM | 46 nM
N#CCC1(n2ccc(-c3nc(-c4cn[nH]c4)cc4ncccc34)n2)CC(C#N)C1 (stereo not drawn) [Example 76, cis-3-(cyanomethyl)-3-{3-[7-(1H-pyrazol-4-yl)-1,6-naphthyridin-5-yl]-1H-pyrazol-1-yl}cyclobutanecarbonitrile] | 33 nM | 1540 nM | 35 nM | 7 nM
N#CC[C@H]1C[C@](CC#N)(n2ccc(-c3nc(-c4cn[nH]c4)cc4ncccc34)n2)C1 [Example 79, 2,2′-(trans-1-{3-[7-(1H-pyrazol-4-yl)-1,6-naphthyridin-5-yl]-1H-pyrazol-1-yl}cyclobutane-1,3-diyl)diacetonitrile] | 774 nM | > 10000 nM | 1050 nM | 74 nM
CO[C@H]1C[C@@](CC#N)(n2ccc(-c3nc(-c4cn[nH]c4)cc4ncccc34)n2)C1 [Example 80, (cis-3-methoxy-1-{3-[7-(1H-pyrazol-4-yl)-1,6-naphthyridin-5-yl]-1H-pyrazol-1-yl}cyclobutyl)acetonitrile] | 927 nM | > 10000 nM | 1060 nM | 47 nM
CO[C@H]1C[C@](CC#N)(n2ccc(-c3nc(-c4cn[nH]c4)cc4ncccc34)n2)C1 [Example 81, (trans-3-methoxy-1-{3-[7-(1H-pyrazol-4-yl)-1,6-naphthyridin-5-yl]-1H-pyrazol-1-yl}cyclobutyl)acetonitrile] | 2170 nM | > 10000 nM | 3090 nM | 101 nM
CC(C)(O)[C@H]1C[C@@](CC#N)(n2ccc(-c3nc(-c4cn[nH]c4)cc4ncccc34)n2)C1 [Example 82, [cis-3-(2-hydroxpropan-2-yl)-1-{3-[7-(1H-pyrazol-4-yl)-1,6-naphthyridin-5-yl]-1H-pyrazol-1-yl}cyclobutyl]acetonitrile] | 2390 nM | > 10000 nM | 3580 nM | 418 nM
